Columns and labels:
Type in all cases: in vivo
[1] = tested on: Diabrotica balteata; assay: Diabrotica balteata artificial diet test; conditions: 120 h, application rate 200 ppm (concentration in well 18 ppm), L2 larvae, 5 days, larval mortality, growth regulation
Protocol: Diabrotica Balteata (Corn Root Worm):
(§1) A 24-well microtiter plate (MTP) with artificial diet was treated with test solutions at an application rate of 200 ppm (concentration in well 18 ppm) by pipetting. After drying, the MTP's were infested with L2 larvae (6-10 per well). After an incubation period of 5 days, samples were checked for larval mortality and growth regulation.

[2] = tested on: Heliothis virescens; assay: Heliothis virescens egg / artificial diet test; conditions: 96 h, application rate 200 ppm (concentration in well 18 ppm), eggs 0-24 h old on artificial diet, 4 days, egg mortality, larval mortality, growth regulation
Protocol: Heliothis Virescens (Tobacco Budworm):
Eggs (0-24 h old) were placed in 24-well microtiter plate on artificial diet and treated with test solutions at an application rate of 200 ppm (concentration in well 18 ppm) by pipetting. After an incubation period of 4 days, samples were checked for egg mortality, larval mortality, and growth regulation.

[3] = tested on: Spodoptera littoralis; assay: Spodoptera littoralis cotton leaf disc spray test; conditions: foliar, 72 h, application rate 200 ppm, sprayed cotton leaf discs, L1 larvae, 3 days after treatment, mortality, feeding behavior, growth regulation
Text: Spodoptera Littoralis (Egyptian Cotton Leafworm):
Cotton leaf discs were placed on agar in a 24-well microtiter plate and sprayed with test solutions at an application rate of 200 ppm. After drying, the leaf discs were infested with 5 L1 larvae. The samples were checked for mortality, feeding behavior, and growth regulation 3 days after treatment (DAT).

[4] = tested on: Tetranychus urticae; assay: Tetranychus urticae bean leaf disc spray test; conditions: foliar, 192 h, application rate 200 ppm, sprayed bean leaf discs, mite populations of mixed ages, 8 days, egg, larval and adult mortality
Text: Tetranychus Urticae (Two-Spotted Spider Mite):
Bean leaf discs on agar in 24-well microtiter plates were sprayed with test solutions at an application rate of 200 ppm. After drying, the leaf discs are infested with mite populations of mixed ages. 8 days later, discs are checked for egg mortality, larval mortality, and adult mortality.

[5] = tested on: Plutella xylostella; assay: Plutella xylostella artificial diet test; conditions: 144 h, application rate 200 ppm (concentration in well 18 ppm), L2 larvae, 6 days, larval mortality, growth regulation
Protocol: Plutella Xylostella (Diamond Back Moth):
as §1, with “24-well” for “A 24-well”, “(7-12” for “(6-10”, “6” for “5”

[6] = tested on: Thrips tabaci; assay: Thrips tabaci sunflower leaf disc spray test; conditions: foliar, 168 h, application rate 200 ppm, sprayed sunflower leaf discs, population of mixed ages, 7 days, mortality
Protocol: Thrips Tabaci (Onion Thrips):
Sunflower leaf discs were placed on agar in a 24-well microtiter plate and sprayed with test solutions at an application rate of 200 ppm. […] After an incubation period of 7 days, samples were checked for mortality.

Measured: pest or weed control at 200 ppm

Cc1cc(C2=NOC(c3cc(Cl)cc(Cl)c3)(C(F)(F)F)C2Br)ccc1C(=O)NC1C[S+]([O-])C1 (single isomer, unassigned) [A25, 4-[4-bromo-5-(3,5-dichloro-phenyl)-5-trifluoromethyl-4,5-dihydro-isoxazol-3-yl]-2-methyl-N-(1-oxo-thietan-3-yl)-benzamide]
≥ 80%: [1]

CCCCNC(=O)c1ccc(C2=NOC(c3cc(Cl)cc(Cl)c3)(C(F)(F)F)C2Br)cc1C (centres unmarked) [A1, 4-[4-bromo-5-(3,5-dichloro-phenyl)-5-trifluoromethyl-4,5-dihydro-isoxazol-3-yl]-N-butyl-2-methyl-benzamide]
not listed: [6]
≥ 80%: all other assays above

Cc1cc(C2=NOC(c3cc(Cl)cc(Cl)c3)(C(F)(F)F)C2Br)ccc1C(=O)Nc1cccc(F)c1 (centres unmarked) [A15]
≥ 80%: all assays above

CCCCNC(=O)c1ccc(C2=NOC(c3cc(Cl)cc(Cl)c3)(C(F)(F)F)C2Cl)cc1C (centres unmarked) [B1]
≥ 80%: all assays above

CCNC(=O)c1ccc(C2=NOC(c3cc(Cl)cc(Cl)c3)(C(F)(F)F)C2Cl)cc1C (centres unmarked) [B3]
≥ 80%: all assays above

CCC(C)NC(=O)c1ccc(C2=NOC(c3cc(Cl)cc(Cl)c3)(C(F)(F)F)C2Cl)cc1C (centres unmarked) [B6]
≥ 80%: all assays above

Cc1cc(C2=NOC(c3cc(Cl)cc(Cl)c3)(C(F)(F)F)C2Cl)ccc1C(=O)NCc1ccccc1 (centres unmarked) [B8]
≥ 80%: all assays above

Cc1cc(C2=NOC(c3cc(Cl)cc(Cl)c3)(C(F)(F)F)C2Cl)ccc1C(=O)Nc1cccc(F)c1 (centres unmarked) [B14]
≥ 80%: [2] | [3] | [5]

Cc1cc(C2=NOC(c3cc(Cl)cc(Cl)c3)(C(F)(F)F)C2Cl)ccc1C(=O)NC1CSC1 (centres unmarked) [B21]
≥ 80%: all assays above

Cc1cc(C2=NOC(c3cc(Cl)cc(Cl)c3)(C(F)(F)F)C2Cl)ccc1C(=O)NC1CCC1 (centres unmarked) [B23]
≥ 80%: all assays above

Cc1cc(C2=NOC(c3cc(Cl)cc(Cl)c3)(C(F)(F)F)C2(F)F)ccc1C(=O)NCc1ccccn1 (centres unmarked) [C1, 4-[5-(3,5-dichloro-phenyl)-4,4-difluoro-5-trifluoromethyl-4,5-dihydro-isoxazol-3-yl]-2-methyl-N-pyridin-2-ylmethyl-benzamide]
not listed: [6]
≥ 80%: all other assays above

CCCCNC(=O)c1ccc(C2=NOC(c3cc(Cl)cc(Cl)c3)(C(F)(F)F)C2SC)cc1C (centres unmarked) [D1, N-butyl-4-[5-(3,5-dichloro-phenyl)-4-methylsulfanyl-5-trifluoromethyl-4,5-dihydro-isoxazol-3-yl]-2-methyl-benzamide]
≥ 80%: [2] | [3] | [5] | [1]

CCCCNC(=O)c1ccc(C2=NOC(c3cc(Cl)cc(Cl)c3)(C(F)(F)F)C2S(C)(=O)=O)cc1C (centres unmarked) [D2, N-butyl-4-[5-(3,5-dichloro-phenyl)-4-methylsulfonyl-5-trifluoromethyl-4,5-dihydro-isoxazol-3-yl]-2-methyl-benzamide]
≥ 80%: [3] | [5]

CSC1C(c2ccc(C(=O)NC3CSC3)c(C)c2)=NOC1(c1cc(Cl)cc(Cl)c1)C(F)(F)F (centres unmarked) [D3, 4-[5-(3,5-dichloro-phenyl)-4-methylsulfanyl-5-trifluoromethyl-4,5-dihydro-isoxazol-3-yl]-2-methyl-N-thietan-3-yl-benzamide]
not listed: [6]
≥ 80%: all other assays above

Cc1cc(C2=NOC(c3cc(Cl)cc(Cl)c3)(C(F)(F)F)C2S(C)(=O)=O)ccc1C(=O)NC1CSC1 (centres unmarked) [D4, 4-[5-(3,5-dichloro-phenyl)-4-methylsulfonyl-5-trifluoromethyl-4,5-dihydro-isoxazol-3-yl]-2-methyl-N-thietan-3-yl-benzamide]
≥ 80%: [2] | [4]

CCCCNC(=O)c1ccc(C2=NOC(c3cc(Cl)cc(Cl)c3)(C(F)(F)F)C2C)cc1C (centres unmarked) [E1, N-butyl-4-[5-(3,5-dichloro-phenyl)-4-methyl-5-trifluoromethyl-4,5-dihydro-isoxazol-3-yl]-2-methyl-benzamide]
≥ 80%: all assays above

Cc1cc(C2=NOC(c3cc(Cl)cc(Cl)c3)(C(F)(F)F)C2C)ccc1C(=O)NC1CSC1 (centres unmarked) [E2, 4-[5-(3,5-dichloro-phenyl)-4-methyl-5-trifluoromethyl-4,5-dihydro-isoxazol-3-yl]-2-methyl-N-thietan-3-yl-benzamide]
≥ 80%: all assays above

CCNC(=O)c1ccc(C2=NOC(c3cc(Cl)cc(Cl)c3)(C(F)(F)F)C2Br)c2ccccc12 (centres unmarked) [F2]
≥ 80%: [1]

CCCCNC(=O)c1ccc(C2=NOC(c3cc(Cl)cc(Cl)c3)(C(F)(F)F)C2Br)c2ccccc12 (centres unmarked) [F3]
≥ 80%: [2] | [3] | [5] | [6]

CCC(C)NC(=O)c1ccc(C2=NOC(c3cc(Cl)cc(Cl)c3)(C(F)(F)F)C2Br)c2ccccc12 (centres unmarked) [F6]
not listed: [4]
≥ 80%: all other assays above

O=C(NCc1ccccc1)c1ccc(C2=NOC(c3cc(Cl)cc(Cl)c3)(C(F)(F)F)C2Br)c2ccccc12 (centres unmarked) [F8]
not listed: [4]
≥ 80%: all other assays above

O=C(Nc1cccc(F)c1)c1ccc(C2=NOC(c3cc(Cl)cc(Cl)c3)(C(F)(F)F)C2Br)c2ccccc12 (centres unmarked) [F14]
not listed: [4]
≥ 80%: all other assays above

O=C(NC1CSC1)c1ccc(C2=NOC(c3cc(Cl)cc(Cl)c3)(C(F)(F)F)C2Br)c2ccccc12 (centres unmarked) [F21]
≥ 80%: all assays above
